Experimental data from patent EP2881391A1, “Spiroindoline carbocycle derivatives and pharmaceutical compositions thereof” (Bayer Pharma Aktiengesellschaft, priority 2013, dated 2015).

Molecular target: T1, human GnRH receptor (Homo sapiens, UniProt P30968)
T1 construct: line established by Prof; Thomas Gudermann; host or cells: CHO cells
T1 sequence (P30968 1-328): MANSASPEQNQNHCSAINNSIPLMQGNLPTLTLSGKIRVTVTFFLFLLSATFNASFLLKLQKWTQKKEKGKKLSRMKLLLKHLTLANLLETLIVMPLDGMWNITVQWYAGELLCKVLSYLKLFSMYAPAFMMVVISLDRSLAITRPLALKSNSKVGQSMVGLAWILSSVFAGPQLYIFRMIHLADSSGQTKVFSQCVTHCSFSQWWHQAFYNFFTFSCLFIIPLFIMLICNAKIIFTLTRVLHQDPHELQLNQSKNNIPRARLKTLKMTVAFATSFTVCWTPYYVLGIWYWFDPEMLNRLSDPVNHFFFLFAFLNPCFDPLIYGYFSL
Assay: IP-One HTRF assay (inhibition of GnRH-R activation by buserelin)
Format: cell-based
Conditions: IP-One HTRF assay with buserelin (at EC80) stimulation; CHO cells stably expressing human GnRH receptor; tested 20 µM to 1 nM; read-out: Potency IC50
Method in brief: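 CHO cells stably expressing human GnRH-R, pre-incubated 20 min at 22°C with compound (10 concentrations, 20 µM to 1 nM, duplicates), then stimulated 1 h at 37°C with buserelin or LHRH at EC50 or EC80 in pH 7.4 buffer with 50 mM LiCl. IP1 read by HTRF 665/620 nm ratio; IC50 by 4-parameter fit.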

Row | SMILES | IC50
1 | O=C(NCC1CCCCC1)c1ccc2c(c1)C1(CCC(O)(C(F)(F)F)CC1)C(C1CC1)N2S(=O)(=O)c1ccc(F)cc1 (centres unmarked) [Example 61, N-(cyclohexylmethyl) -2'-cyclopropyl-1'-[(4-fluorophenyl)sulfonyl]-4-hydroxy-4-(trifluoromethyl)-1',2'-dihydrospiro[cyclohexane-1,3'-indole]-5'-carboxamide] | 741 nM
2 | COC(=O)c1cccc(NC(=O)c2ccc3c(c2)C2(CCC(O)(C(F)(F)F)CC2)C(C2CC2)N3S(=O)(=O)c2ccc(F)cc2)c1 (single isomer, unassigned) [Example 30-1] | 142 nM
3 | O=C(Nc1ccon1)c1ccc2c(c1)C1(CCC(O)(C(F)(F)F)CC1)C(C1CC1)N2S(=O)(=O)c1ccc(F)cc1 (single isomer, unassigned) [Example 56-2] | 17400 nM
4 | O=C(NCc1ncccc1C(F)(F)F)c1ccc2c(c1)C1(CCC(O)(C(F)(F)F)CC1)C(C1CC1)N2S(=O)(=O)c1ccc(F)cc1 (centres unmarked) [Example 65, 2'-cyclopropyl-1'-[(4-fluorophenyl)sulfonyl]-4-hydroxy-4-(trifluoromethyl)-N-{[3-(trifluoromethyl)pyridin-2-yl]methyl}-1',2'-dihydrospiro[cyclohexane-1,3'-indole]-5'-carboxamide] | 311 nM
5 | CS(=O)(=O)c1cccc(NC(=O)c2ccc3c(c2)C2(CCC(O)(C(F)(F)F)CC2)C(C2CC2)N3S(=O)(=O)c2ccc(F)cc2)c1 (centres unmarked) [Example 46, 2'-cyclopropyl-1'-[(4-fluorophenyl)sulfonyl]-4-hydroxy-N-[3-(methylsulfonyl)phenyl]-4-(trifluoromethyl)-1',2'-dihydrospiro[cyclohexane-1,3'-indole]-5'-carboxamide] | 540 nM
6 | COc1cccc(S(=O)(=O)N2c3ccc(C(=O)NCc4ccccc4Cl)cc3C3(CCC(O)(C(F)(F)F)CC3)C2C2CC2)c1 (centres unmarked) [Example 43, N-(2-chlorobenzyl)-2'-cyclopropyl-4-hydroxy-1'-[(3-methoxyphenyl)su Ifonyl]-4-(trifluoromethyl)-1',2'-dihydrospiro[cyclohexane-1,3'-indole]-5'-carboxamide] | 621 nM
7 | Cc1cccc(NC(=O)c2ccc3c(c2)C2(CCC(O)(C(F)(F)F)CC2)C(C2CC2)N3S(=O)(=O)c2ccc(F)cc2)c1 (centres unmarked) [Example 24, 2'-cyclopropyl-1'-[(4-fluorophenyl)sulfonyl]-4-hydroxy-N-(3-methylphenyl)-4-(trifluoromethyl)-1',2'-dihydrospiro[cyclohexane-1,3'-indole]-5'-carboxamide] | 796 nM
8 | O=C(O)c1cccc(S(=O)(=O)N2c3ccc(C(=O)NCc4ccccc4Cl)cc3C3(CCCCC3)C2C2CC2)c1 (centres unmarked) [Example 10, 3-({5'-[(2-chlorobenzyl)carbamoyl]-2'-cyclopropylspiro[cyclohexane-1,3'-indol]-1'(2'H)-yl}sulfonyl)benzoic acid] | 805 nM
9 | CC(C)=CCC1N(S(=O)(=O)c2ccc(F)cc2)c2ccc(C(=O)Nc3cncc(C)c3)cc2C12CCC(O)(C(F)(F)F)CC2 (centres unmarked) [Example 18, 1'-[(4-fluorophenyl)sulfonyl]-4-hydroxy-2'-(3-methylbut-2-en-1-yl)-N-(5-methylpyridin-3-yl)-4-(trifluoromethyl)-1',2'-dihydrospiro[cyclohexane-1,3'-indole]-5'-carboxamide] | 1840 nM
10 | O=C(Nc1cccc(C(F)(F)F)c1)c1ccc2c(c1)C1(CCC(O)(C(F)(F)F)CC1)C(C1CC1)N2S(=O)(=O)c1ccc(F)cc1 (centres unmarked) [Example 54, 2'-cyclopropyl-1 [(4-fluorophenyl)sulfonyl]-4-hydroxy-4-(trifluoromethyl)-N-[3-(trifluoromethyl)phenyl]-1',2'-dihydrospiro[cyclohexane-1,3'-indole]-5'-carboxamide] | 2320 nM
11 | COc1cccc(S(=O)(=O)N2c3ccc(C(=O)NCC4CCCCC4)cc3C3(CCC(O)(C(F)(F)F)CC3)C2C2CC2)c1 (centres unmarked) [Example 42, N-(cyclohexylmethyl) -2'-cyclopropyl-4-hydroxy-1'-[(3-methoxyphenyl)su Ifonyl]-4-(trifluoromethyl)-1',2'-dihydrospiro[cyclohexane-1,3'-indole]-5'-carboxamide] | 1880 nM
12 | COC(=O)c1cccc(NC(=O)c2ccc3c(c2)C2(CCC(O)(C(F)(F)F)CC2)C(C2CC2)N3S(=O)(=O)c2ccc(F)cc2)c1 (single isomer, unassigned) [Example 30-2] | 1590 nM
13 | COc1cccc(S(=O)(=O)N2c3ccc(C(=O)Nc4ccon4)cc3C3(CCC(O)(C(F)(F)F)CC3)C2C2CC2)c1 (centres unmarked) [Example 38, 2'-cyclopropyl-4-hydroxy-1'-[(3-methoxyphenyl)su Ifonyl]-N-(1,2-oxazol-3-yl)-4-(trifluoromethyl)-1',2'-dihydrospiro[cyclohexane-1,3'-indole]-5'-carboxamide] | 1680 nM
14 | CC(C)=CCC1N(S(=O)(=O)c2ccc(F)cc2)c2ccc(C(=O)NCc3ncccc3C(F)(F)F)cc2C12CCC(O)(C(F)(F)F)CC2 (centres unmarked) [Example 23, 1'-[(4-fluorophenyl)sulfonyl]-4-hydroxy-2'-(3-methylbut-2-en-1-yl)-4-(trifluoromethyl)-N-{[3-(trifluoromethyl)pyridin-2-yl]methyl}-1',2'-dihydrospiro[cyclohexane-1,3'-indole]-5'-carboxamide] | 713 nM
15 | COC(=O)c1cccc(S(=O)(=O)N2c3ccc(C(=O)NCc4ncc(C(F)(F)F)cc4F)cc3C3(CCC(O)(C(F)(F)F)CC3)C2C2CC2)c1 (centres unmarked) [Example 28, methyl 3-{[2'-cyclopropyl-5'-({[3-fluoro-5-(trifluoromethyl)pyridin-2-yl]methyl}carbamoyl)-4-hydroxy-4-(trifluoromethyl)spiro[cyclohexane-1,3'-indol]-1'(2'H)-yl]sulfonyl}benzoate] | 1780 nM
16 | COc1cccc(S(=O)(=O)N2c3ccc(C(=O)NCc4ncccc4C(F)(F)F)cc3C3(CCC(O)(C(F)(F)F)CC3)C2C2CC2)c1 (centres unmarked) [Example 44, 2'-cyclopropyl-4-hydroxy-1'-[(3-methoxyphenyl)su Ifonyl]-4-(trifluoromethyl)-N-{[3-(trifluoromethyl)pyridin-2-yl]methyl}-1',2'-dihydrospiro[cyclohexane-1,3'-indole]-5'-carboxamide] | 403 nM
17 | O=C(NCc1ccccc1Cl)c1ccc2c(c1)C1(CCC(O)(C(F)(F)F)CC1)C(C1CC1)N2S(=O)(=O)c1ccc(F)cc1 (centres unmarked) [Example 62, N-(2-chlorobenzyl)-2'-cyclopropyl-1'-[(4-fluorophenyl)sulfonyl]-4-hydroxy-4-(trifluoromethyl)-1',2'-dihydrospiro[cyclohexane-1,3'-indole]-5'-carboxamide] | 253 nM
18 | COc1cccc(S(=O)(=O)N2c3ccc(C(=O)Nc4cncc(C)c4)cc3C3(CCC(O)(C(F)(F)F)CC3)C2C2CC2)c1 (centres unmarked) [Example 39, 2'-cyclopropyl-4-hydroxy-1'-[(3-methoxyphenyl)su Ifonyl]-N-(5-methylpyridin-3-yl)-4-(trifluoromethyl)-1',2'-dihydrospiro[cyclohexane-1,3'-indole]-5'-carboxamide] | 1680 nM
19 | CC(C)=CCC1N(S(=O)(=O)c2ccc(F)cc2)c2ccc(C(=O)Nc3cccc(C(=O)O)c3)cc2C12CCC(O)(C(F)(F)F)CC2 (centres unmarked) [Example 14, 3-[({1'-[(4-fluorophenyl)sulfonyl]-4-hydroxy-2'-(3-methylbut-2-en-1-yl)-4-(trifluoromethyl)-1',2'-dihydrospiro[cyclohexane-1,3'-indol]-5'-yl}carbonyl)amino] benzoic acid] | 639 nM
20 | O=C(NCc1ccccc1Cl)c1ccc2c(c1)C1(CCC(O)(C(F)(F)F)CC1)C(C1CC1)N2S(=O)(=O)c1ccc(F)cc1 (single isomer, unassigned) [Example 62-2] | 3280 nM
21 | CC1(O)CCC2(CC1)c1cc(C(=O)NCc3ccccc3Cl)ccc1N(S(=O)(=O)c1ccc(F)cc1)C2C1CC1 (centres unmarked) [Example 4, N-(2-chlorobenzyl)-2'-cyclopropyl-1'-[(4-fluorophenyl)sulfonyl]-4-hydroxy-4-methyl-1',2'-dihydrospiro[cyclohexane-1,3'-indole]-5'-carboxamide] | 73.3 nM
22 | O=C(NCc1ncccc1C(F)(F)F)c1ccc2c(c1)C1(CCC(O)(C(F)(F)F)CC1)C(C1CC1)N2S(=O)(=O)c1cccc(C(=O)N2CCC2)c1 (centres unmarked) [Example 66, 1'-{[3-(azetidin-1-ylcarbonyl)phenyl]sulfonyl}-2'-cyclopropyl-4-hydroxy-4-(trifluoromethyl)-N-{[3-(trifluoromethyl)pyridin-2-yl]methyl}-1',2'-dihydrospiro[cyclohexane-1,3'-indole]-5'-carboxamide] | 2180 nM
23 | COc1cccc(S(=O)(=O)N2c3ccc(C(=O)Nc4cccc(S(C)(=O)=O)c4)cc3C3(CCC(O)(C(F)(F)F)CC3)C2C2CC2)c1 (centres unmarked) [Example 36, 2'-cyclopropyl-4-hydroxy-1'-[(3-methoxyphenyl)su Ifonyl]-N-[3-(methylsulfonyl)phenyl]-4-(trifluoromethyl)-1',2'-dihydrospiro[cyclohexane-1,3'-indole]-5'-carboxamide] | 1270 nM
